Publication PMC7114147 (Antiviral Research, 2013)

Key:
A/PR/8/34 4 #8 cl3 = test: microbe, parasite or virus in culture; format: cell-based; conditions: Influenza A virus, PR/8, pH 5.7, read-out: Antiviral activity (EC50), 4 #8 cl3
A/X-31 (A/H3N2) = format: cell-based, influenza A virus; conditions: read-out: Antiviral activity (EC50) A/X-31
[1] = test system: A/Virginia/ATCC3/2009 (2009 pandemic A/H1N1); format: cell-based, influenza A virus; conditions: read-out: Antiviral activity (EC50) A/2009pan
A/PR/8/34 6c #8 cl3 = test: microbe, parasite or virus in culture; format: cell-based; conditions: Influenza A virus, PR/8, pH 5.5, read-out: Antiviral activity (EC50), 6c #8 cl3
V27A mutant A/M2 = V27A mutant A/M2 (Influenza A virus, UniProt P0DOF5, V27A); format: biochemical, influenza A/Udorn/72
S31N mutant A/M2 = S31N mutant A/M2 (Influenza A virus, UniProt P0DOF5, S31N); format: biochemical, influenza A/Udorn/72
A/H1N1 (A/PR/8/34) = test: microbe, parasite or virus in culture; format: cell-based, influenza A virus; conditions: read-out: Antiviral activity (EC50) A/PR/8/34

| SMILES | EC50 (A/PR/8/34 4 #8 cl3) [µM] | EC50 (A/X-31 (A/H3N2)) [µM] | EC50 [1] [µM] | EC50 (A/PR/8/34 6c #8 cl3) [µM] | Activity against V27A mutant A/M2 (V27A mutant A/M2) | Activity against S31N mutant A/M2 (S31N mutant A/M2) | EC50 (A/H1N1 (A/PR/8/34)) [µM] |
| --- | --- | --- | --- | --- | --- | --- | --- |
| NC12CC3CC(CC(C3)C1)C2 [Amantadine, amantadine] | > 250 | 61 ± 12 | 137 ± 10 | > 250 | – | – | – |
| C1=CC2C3C4C5C=CC4C24CNCC54C13 [Compound 3, 3-azahexacyclo[7.6.0.0^1,5.0^5,12.0^6,10.0^11,15]pentadeca-7,13-diene] | – | – | – | – | inactive | inactive | – |
| CCC(CC)O[C@@H]1C=C(C(=O)O)C[C@H](N)[C@H]1NC(C)=O [Oseltamivir carboxylate] | – | 0.11 ± 0.05 | – | – | – | – | 21 ± 9 |
| NC(=O)c1ncn([C@@H]2O[C@H](CO)[C@@H](O)[C@H]2O)n1 [Ribavirin] | 26 ± 4 | 8.8 ± 0.2 | 11 ± 1 | 24 ± 3 | – | – | 8.7 ± 0.7 |
| CC(N)C12CC3CC(CC(C3)C1)C2 (stereo not drawn) [Rimantadine, rimantadine] | > 100 | 7 ± 1.7 | ≥ 158 | > 100 | inactive | inactive | – |
| CC(=O)N[C@H]1[C@H]([C@H](O)[C@H](O)CO)OC(C(=O)O)=C[C@@H]1N=C(N)N [Zanamivir] | – | 0.16 ± 0.05 | – | – | – | – | 6 ± 1.3 |
